According to patent publication US20230346827A1 (priority 2020, published 2023):

System: rats subjected to sTBI
Assay: sTBI rats, LMW-DS 1, 5, 15 mg/kg s.c. 30 min post-TBI: HPLC of brain energy metabolites, antioxidants, oxidative/nitrosative stress biomarkers (Example 4)
Format: in vivo, rat
Method: Male Wistar rats (n=160) of 300-350 g body weight were used in this study. They were fed with standard laboratory diet and water ad libitum in a controlled environment.
As the accepted anesthetic mixture, animals received 35 mg/kg b.w. ketamine and 0.25 mg/kg body weight midazolam by intramuscular injection. Diffuse sTBI was induced according to the “weight drop” impact acceleration model set up by Marmarou et al. J. Neurosurg. 1994, 80: 291-300. This model causes diffuse axonal injury and it is able to reproduce the physical and mechanical characteristics of the diffuse TBI in humans.
Severe TBI was induced by dropping a 450 g weight from 2 meters height onto the rat head protected by a helmet (metal disk previously fixed on the skull using dental cement) in order to uniformly distribute the mechanical force to the brain. Rats were placed prone on a bed of specific polyurethane foam inserted in a special container; this foam dissipates the major part of the potential energy (deriving from the mechanical forces) and prevents any rebound of the animal after the impact that could produce spinal damages.
After 2 or 7 days from TBI induction, rats were anesthetized again and then immediately sacrificed. These time points are coincident with the worst biochemical derangement (2 days) or, in the case of a mildly injured brain, with a full metabolic recovery (7 days).
The drug treatment consisted in a subcutaneous injection of 0.5 ml of LMW-DS (ILB®, Tikomed, Viken, Sweden, WO 2016/076780) and administered at 3 different concentrations (1, 5 and 15 mg/kg body weight), according to the schematic protocol described below. Sham-operated animals underwent the same procedure of anesthesia but TBI and were used as the control group.
(§1) Rats subjected to sTBI and receiving a single administration of LMW-DS after 30 minutes post-TBI, with sacrifice at 2 days post-TBI. Animals were divided in the following subgroups: • 1. 12 animals subjected to sTBI and treated with 1 mg/kg b.w. LMW-DS • 2. 12 animals subjected to sTBI and treated with 5 mg/kg b.w. LMW-DS • 3. 12 animals subjected to sTBI and treated with 15 mg/kg b.w. LMW-DS
as §1, with “at 7” for “at 2”
Rats (n = 12) subjected to sTBI and receiving repeated administrations of the maximal dose of LMW-DS (15 mg/kg b.w.) after 30 minutes, 3 days and 5 days post-TBI, with sacrifice at 7 days post-TBI. Four additional rats were used for the histo-morphological studies. Total rats in this group: n=16
To minimize metabolite loss, an in vivo craniectomy was performed in all animals during anesthesia. The rat skull was carefully removed, the brain was exposed, sharply cut along the sagittal fissure and the two hemispheres were separated. The hemispheres dedicated to biochemical analyses were freeze-clamped by aluminum tongues pre-cooled in liquid nitrogen and then immersed in liquid nitrogen. The freeze-clamping procedure was introduced to accelerate freezing of the tissue, thus minimizing potential metabolite loss.
Tissue homogenization for metabolite analyses was effected as described below. After the wet weight (w.w.) determination, the frozen hemispheres were placed into 7 ml of ice-cold, nitrogen-saturated, precipitating solution (1:10 w/v) composed by CH3CN + 10 mM KH2PO4, pH 7.40, (3:1; v:v), and the homogenization was performed using an Ultra-Turrax homogenizer set at 24,000 rpm/min (Janke & Kunkel, Staufen, Germany). […]

[1] = 15 mg/kg, 7 d post-sTBI, adimensional ratio

sodium salt of dextran sulfate [LMW-DS]
GDP (15 mg/kg, 2 d post-sTBI): 194.61 ± 26.88 nmol/g w.w.
GDP Glucose (15 mg/kg, 2 d post-sTBI): 84.24 ± 37.54 nmol/g w.w.
GMP (15 mg/kg, 2 d post-sTBI): 178.88 ± 22.46 nmol/g w.w.
GSH (15 mg/kg, 2 d post-sTBI): 2418.94 ± 352.75 nmol/g w.w.
GTP (15 mg/kg, 2 d post-sTBI): 179.07 ± 18.89 nmol/g w.w.
GUANINE (15 mg/kg, 2 d post-sTBI): 1.61 ± 0.40 nmol/g w.w.
GUANOSINE (15 mg/kg, 2 d post-sTBI): 24.35 ± 4.05 nmol/g w.w.
HYPOXANTHINE (15 mg/kg, 2 d post-sTBI): 6.82 ± 1.12 nmol/g w.w.
IMP (15 mg/kg, 2 d post-sTBI): 68.95 ± 12.98 nmol/g w.w.
INOSINE (15 mg/kg, 2 d post-sTBI): 142.91 ± 18.63 nmol/g w.w.
MDA (15 mg/kg, 2 d post-sTBI): 18.28 ± 2.98 nmol/g w.w.
Malonyl-CoA (15 mg/kg, 2 d post-sTBI): 28.73 ± 6.09 nmol/g w.w.
NADH (15 mg/kg, 2 d post-sTBI): 10.83 ± 1.58 nmol/g w.w.
NADPH (15 mg/kg, 2 d post-sTBI): 8.93 ± 0.74 nmol/g w.w.
NADP^+ (15 mg/kg, 2 d post-sTBI): 17.75 ± 4.06 nmol/g w.w.
NAD^+ (15 mg/kg, 2 d post-sTBI): 475.32 ± 80.91 nmol/g w.w.
NO2 (15 mg/kg, 2 d post-sTBI): 72.29 ± 8.71 nmol/g w.w.
NO3 (15 mg/kg, 2 d post-sTBI): 56.50 ± 12.30 nmol/g w.w.
UDP (15 mg/kg, 2 d post-sTBI): 80.00 ± 8.20 nmol/g w.w.
UDP-Gal (15 mg/kg, 2 d post-sTBI): 116.34 ± 9.71 nmol/g w.w.
UDP-GalNac (15 mg/kg, 2 d post-sTBI): 22.37 ± 3.30 nmol/g w.w.
UDP-Glc (15 mg/kg, 2 d post-sTBI): 43.41 ± 6.43 nmol/g w.w.
UDP-GlcNac (15 mg/kg, 2 d post-sTBI): 108.74 ± 9.90 nmol/g w.w.
UMP (15 mg/kg, 2 d post-sTBI): 147.53 ± 20.38 nmol/g w.w.
URACIL (15 mg/kg, 2 d post-sTBI): 15.55 ± 3.04 nmol/g w.w.
URIC ACID (15 mg/kg, 2 d post-sTBI): 26.00 ± 5.33 nmol/g w.w.
URIDINE (15 mg/kg, 2 d post-sTBI): 87.55 ± 15.41 nmol/g w.w.
UTP (15 mg/kg, 2 d post-sTBI): 108.21 ± 16.99 nmol/g w.w.
XANTHINE (15 mg/kg, 2 d post-sTBI): 13.87 ± 1.44 nmol/g w.w.
β-PSEUDOURIDINE (15 mg/kg, 2 d post-sTBI): 7.84 ± 1.57 nmol/g w.w.
NAD^+/NADH (15 mg/kg, 2 d post-sTBI, adimensional ratio): 44.40 ± 7.67
ADENOSINE (15 mg/kg, 7 d post-sTBI): 55.95 ± 41.44 nmol/g w.w.
ADP (15 mg/kg, 7 d post-sTBI): 276.83 ± 36.87 nmol/g w.w.
ADP-Ribose (15 mg/kg, 7 d post-sTBI): 19.21 ± 4.82 nmol/g w.w.
AMP (15 mg/kg, 7 d post-sTBI): 50.50 ± 3.97 nmol/g w.w.
ASCORBIC ACID (15 mg/kg, 7 d post-sTBI): 2853.35 ± 343.64 nmol/g w.w.
ATP (15 mg/kg, 7 d post-sTBI): 1846.63 ± 148.55 nmol/g w.w.
Acetyl-CoA (15 mg/kg, 7 d post-sTBI): 38.60 ± 6.57 nmol/g w.w.
CDP choline (15 mg/kg, 7 d post-sTBI): 10.06 ± 3.23 nmol/g w.w.
CMP (15 mg/kg, 7 d post-sTBI): 47.10 ± 20.04 nmol/g w.w.
CREATININE (15 mg/kg, 7 d post-sTBI): 5.23 ± 0.92 nmol/g w.w.
CTP (15 mg/kg, 7 d post-sTBI): 96.44 ± 25.54 nmol/g w.w.
CYTIDINE (15 mg/kg, 7 d post-sTBI): 33.06 ± 11.63 nmol/g w.w.
CYTOSINE (15 mg/kg, 7 d post-sTBI): 13.87 ± 2.98 nmol/g w.w.
CoA-SH (15 mg/kg, 7 d post-sTBI): 64.93 ± 8.33 nmol/g w.w.
GDP (15 mg/kg, 7 d post-sTBI): 122.07 ± 13.95 nmol/g w.w.
GDP Glucose (15 mg/kg, 7 d post-sTBI): 101.65 ± 11.89 nmol/g w.w.
GMP (15 mg/kg, 7 d post-sTBI): 41.55 ± 19.66 nmol/g w.w.
GSH (15 mg/kg, 7 d post-sTBI): 2390.89 ± 315.16 nmol/g w.w.
GTP (15 mg/kg, 7 d post-sTBI): 479.98 ± 43.64 nmol/g w.w.
GUANINE (15 mg/kg, 7 d post-sTBI): 5.27 ± 2.24 nmol/g w.w.
GUANOSINE (15 mg/kg, 7 d post-sTBI): 20.91 ± 4.36 nmol/g w.w.
HYPOXANTHINE (15 mg/kg, 7 d post-sTBI): 10.21 ± 2.97 nmol/g w.w.
IMP (15 mg/kg, 7 d post-sTBI): 74.70 ± 19.13 nmol/g w.w.
INOSINE (15 mg/kg, 7 d post-sTBI): 104.41 ± 11.72 nmol/g w.w.
MDA (15 mg/kg, 7 d post-sTBI): 6.23 ± 1.03 nmol/g w.w.
Malonyl-CoA (15 mg/kg, 7 d post-sTBI): 7.98 ± 1.44 nmol/g w.w.
NADH (15 mg/kg, 7 d post-sTBI): 11.65 ± 1.63 nmol/g w.w.
NADPH (15 mg/kg, 7 d post-sTBI): 6.66 ± 1.55 nmol/g w.w.
NADP^+ (15 mg/kg, 7 d post-sTBI): 23.75 ± 8.72 nmol/g w.w.
NAD^+ (15 mg/kg, 7 d post-sTBI): 491.52 ± 69.61 nmol/g w.w.
NO2 (15 mg/kg, 7 d post-sTBI): 110.72 ± 23.99 nmol/g w.w.
NO3 (15 mg/kg, 7 d post-sTBI): 161.99 ± 27.67 nmol/g w.w.
UDP (15 mg/kg, 7 d post-sTBI): 37.91 ± 5.33 nmol/g w.w.
UDP-Gal (15 mg/kg, 7 d post-sTBI): 137.57 ± 9.46 nmol/g w.w.
UDP-GalNac (15 mg/kg, 7 d post-sTBI): 17.91 ± 5.13 nmol/g w.w.
UDP-Glc (15 mg/kg, 7 d post-sTBI): 62.97 ± 12.80 nmol/g w.w.
UDP-GlcNac (15 mg/kg, 7 d post-sTBI): 67.47 ± 23.34 nmol/g w.w.
UMP (15 mg/kg, 7 d post-sTBI): 181.82 ± 35.22 nmol/g w.w.
URACIL (15 mg/kg, 7 d post-sTBI): 15.92 ± 3.27 nmol/g w.w.
URIC ACID (15 mg/kg, 7 d post-sTBI): 8.60 ± 2.05 nmol/g w.w.
URIDINE (15 mg/kg, 7 d post-sTBI): 134.04 ± 31.76 nmol/g w.w.
UTP (15 mg/kg, 7 d post-sTBI): 127.42 ± 22.32 nmol/g w.w.
XANTHINE (15 mg/kg, 7 d post-sTBI): 12.71 ± 3.60 nmol/g w.w.
β-PSEUDOURIDINE (15 mg/kg, 7 d post-sTBI): 63.77 ± 11.83 nmol/g w.w.
ATP/ADP [1]: 6.76 ± 0.86
NAD+/NADH [1]: 42.51 ± 5.26
whole brain NAA (5 or 15 mg/kg b.w., 2 days post impact): significantly higher than values found in sTBI rats
ATP levels, % lower than the value of controls (7 days post impact): 16%
NAA concentration, % lower than the value of controls (7 days post impact): 16%
whole brain NAA (increasing single doses or repeat maximal dose, 7 days post sTBI): dose dependent increase
